Source: ChEMBL document CHEMBL1208668, “Synthesis and biological evaluation of novel spiro 6-methoxytetralin-1,3'-pyrrolidine based organoselenocyanates against cadmium-induced oxidative and hepatic damage in mice” (2010)
Calls of active or inactive are those of the source. The rule behind the calls is not given here.

Experiments:
[1] = tested on: Mus musculus; assay: Hepatoprotective activity against cadmium-induced oxidative damage in Swiss albino mouse assessed as inhibition of cadmium-induced GSH depletion at 3 mg/kg, po administered 7 days prior to first cadmium treatment followed by administration for 20 days concomitantly with cadmium; format: functional, organism-based; set-up: dose 3 mg/kg
[2] = tested on: Mus musculus; assay: Hepatoprotective activity against cadmium-induced oxidative damage in Swiss albino mouse assessed as inhibition of cadmium-induced SOD activity depletion at 3 mg/kg, po administered 7 days prior to first cadmium treatment followed by administration for 20 days concomitantly with cadmium; format: functional, organism-based; set-up: dose 3 mg/kg
[3] = tested on: Mus musculus; assay: Hepatoprotective activity against cadmium-induced oxidative damage in Swiss albino mouse assessed as inhibition of cadmium-induced GST activity depletion at 3 mg/kg, po administered for 20 days concomitantly with cadmium; format: functional, organism-based; set-up: dose 3 mg/kg
[4] = tested on: Mus musculus; assay: Renoprotective activity against cadmium-induced renal damage in Swiss albino mouse assessed as inhibition of cadmium-induced BUN level […] at 3 mg/kg, po administered 7 days prior to first cadmium treatment followed by administration for 20 days concomitantly with cadmium; format: functional, organism-based; set-up: dose 3 mg/kg
[5] = tested on: Mus musculus; assay: Hepatoprotective activity against cadmium-induced oxidative damage in Swiss albino mouse assessed as inhibition of cadmium-induced GST activity depletion at 3 mg/kg, po administered 7 days prior to first cadmium treatment followed by administration for 20 days concomitantly with cadmium; format: functional, organism-based; set-up: dose 3 mg/kg
[6] = tested on: Mus musculus; assay: Hepatoprotective activity against cadmium-induced oxidative damage in Swiss albino mouse assessed as inhibition of cadmium-induced SOD activity depletion at 3 mg/kg, po administered for 20 days concomitantly with cadmium; format: functional, organism-based; set-up: dose 3 mg/kg
[7] = tested on: Mus musculus; assay: Hepatoprotective activity against cadmium-induced hepatic damage in Swiss albino mouse assessed as inhibition of cadmium-induced elevation in serum ALT level at 3 mg/kg, po administered 7 days prior to first cadmium treatment followed by administration for 20 days concomitantly with cadmium; format: functional, organism-based; set-up: dose 3 mg/kg
[8] = tested on: Mus musculus; assay: Hepatoprotective activity against cadmium-induced hepatic damage in Swiss albino mouse assessed as inhibition of cadmium-induced LPO level at 3 mg/kg, po administered for 20 days concomitantly with cadmium bt TBARS assay; format: functional, organism-based; set-up: dose 3 mg/kg
[9] = tested on: Mus musculus; assay: Hepatoprotective activity against cadmium-induced oxidative damage in Swiss albino mouse assessed as inhibition of cadmium-induced GSH depletion at 3 mg/kg, po administered for 20 days concomitantly with cadmium; format: functional, organism-based; set-up: dose 3 mg/kg
[10] = tested on: Mus musculus; assay: Renoprotective activity against cadmium-induced renal damage in Swiss albino mouse assessed as inhibition of cadmium-induced creatinine level change at 3 mg/kg, po administered 7 days prior to first cadmium treatment followed by administration for 20 days concomitantly with cadmium; format: functional, organism-based; set-up: dose 3 mg/kg
[11] = tested on: Mus musculus; assay: Hepatoprotective activity against cadmium-induced hepatic damage in Swiss albino mouse assessed as ratio of liver weight to body weight at 3 mg/kg, po administered for 20 days concomitantly with cadmium; format: functional
[12] = tested on: Mus musculus; assay: Hepatoprotective activity against cadmium-induced hepatic damage in Swiss albino mouse assessed as inhibition of cadmium-induced LPO level at 3 mg/kg, po administered 7 days prior to first cadmium treatment followed by administration for 20 days concomitantly with cadmium; format: functional, organism-based; set-up: dose 3 mg/kg
[13] = tested on: Mus musculus; assay: Renoprotective activity against cadmium-induced renal damage in Swiss albino mouse assessed as inhibition of cadmium-induced creatinine level change at 3 mg/kg, po administered for 20 days concomitantly with cadmium; format: functional, organism-based; set-up: dose 3 mg/kg
[14] = tested on: Mus musculus; assay: Hepatoprotective activity against cadmium-induced hepatic damage in Swiss albino mouse assessed as inhibition of cadmium-induced elevation in serum AST level at 3 mg/kg, po administered for 20 days concomitantly with cadmium; format: functional, organism-based; set-up: dose 3 mg/kg
[15] = tested on: Mus musculus; assay: Hepatoprotective activity against cadmium-induced hepatic damage in Swiss albino mouse assessed as inhibition of cadmium-induced elevation in serum ALT level at 3 mg/kg, po administered for 20 days concomitantly with cadmium; format: functional, organism-based; set-up: dose 3 mg/kg
[16] = tested on: Mus musculus; assay: Hepatoprotective activity against cadmium-induced hepatic damage in Swiss albino mouse assessed as inhibition of cadmium-induced elevation in serum AST level at 3 mg/kg, po administered 7 days prior to first cadmium treatment followed by administration for 20 days concomitantly with cadmium; format: functional, organism-based; set-up: dose 3 mg/kg
[17] = tested on: Mus musculus; assay: Hepatoprotective activity against cadmium-induced hepatic damage in Swiss albino mouse assessed as ratio of liver weight to body weight at 3 mg/kg, po administered 7 days prior to first cadmium treatment followed by administration for 20 days concomitantly with cadmium; format: functional
[18] = tested on: Mus musculus; assay: Renoprotective activity against cadmium-induced renal damage in Swiss albino mouse assessed as inhibition of cadmium-induced BUN level […] at 3 mg/kg, po administered for 20 days concomitantly with cadmium; format: functional, organism-based; set-up: dose 3 mg/kg
[19] = tested on: Mus musculus; assay: Hepatoprotective activity against cadmium-induced hepatic damage in Swiss albino mouse assessed as inhibition of cadmium-induced liver necrosis and inflammation at 3 mg/kg, po administered for 20 days concomitantly with cadmium; format: functional, organism-based; set-up: dose 3 mg/kg
[20] = tested on: Mus musculus; assay: Hepatoprotective activity against cadmium-induced hepatic damage in Swiss albino mouse assessed as inhibition of cadmium-induced liver necrosis and inflammation at 3 mg/kg, po administered 7 days prior to first cadmium treatment followed by administration for 20 days concomitantly with cadmium; format: functional, organism-based; set-up: dose 3 mg/kg
[21] = tested on: Mus musculus; assay: Hepatoprotective activity against cadmium-induced oxidative damage in Swiss albino mouse assessed as inhibition of cadmium-induced CAT activity depletion at 3 mg/kg, po administered for 20 days concomitantly with cadmium; format: functional, organism-based; set-up: dose 3 mg/kg
[22] = tested on: Mus musculus; assay: Hepatoprotective activity against cadmium-induced oxidative damage in Swiss albino mouse assessed as inhibition of cadmium-induced CAT activity depletion at 3 mg/kg, po administered 7 days prior to first cadmium treatment followed by administration for 20 days concomitantly with cadmium; format: functional, organism-based; set-up: dose 3 mg/kg

SMILES	inhibition [1]	inhibition [2]	inhibition [3]	inhibition [4]	inhibition [5]	inhibition [6]	inhibition [7]	inhibition [8]	inhibition [9]	inhibition [10]	Ratio [11]	inhibition [12]	inhibition [13]	inhibition [14]	inhibition [15]	inhibition [16]	Ratio [17]	inhibition [18]	inhibition [21]	inhibition [22]	other results
COc1ccc2c(c1)CCCC21CC(=O)N(CC[Se]C#N)C1=O (stereo not drawn)	inactive	inactive	Active	Active	Active	inactive	inactive	Active	inactive	inactive	0.0525	Active	inactive	Active	inactive	Active	–	–	–	–	–
COc1ccc2c(c1)CCCC21CC(=O)N(CCC[Se]C#N)C1=O (stereo not drawn)	–	inactive	Active	Active	Active	inactive	inactive	Active	–	inactive	0.0483	Active	inactive	Active	inactive	Active	0.0474	–	–	–	–
COc1ccc2c(c1)CCCC21CC(=O)N(CCCCC[Se]C#N)C1=O (stereo not drawn)	Active	inactive	Active	Active	Active	inactive	Active	Active	Active	inactive	0.047	Active	inactive	Active	Active	Active	0.0428	Active	Active	Active	inhibition [19]: Active; inhibition [20]: Active
COc1ccc2c(c1)CCCC21CC(=O)N(CCCC[Se]C#N)C1=O (stereo not drawn)	Active	inactive	Active	Active	Active	inactive	Active	Active	Active	inactive	0.0487	Active	inactive	Active	Active	Active	0.0466	Active	Active	Active	–
